The source made the active and inactive calls. No cut-off for these calls is given here.
Legend:
RAW264.7 [1] = test: Inhibition of RANKL-induced osteoclast differentiation in mouse RAW264.7 cells harboring ERbeta siRNA assessed as decrease in TRAP mRNA level at 20 uM after 24 hrs by qRT-PCR method; type: functional, cell-based
RAW264.7 [2] = test: Inhibition of RANKL-induced osteoclast differentiation in mouse RAW264.7 cells harboring ERalpha siRNA assessed as decrease in TRAP activity at 20 uM after 5 days by microscopy; type: functional, cell-based
RAW264.7 [3] = test: Inhibition of RANKL-induced osteoclast differentiation in mouse RAW264.7 cells assessed as decrease in TRAP mRNA level at 20 uM after 24 hrs in presence of ERbeta antagonist PHTPP by qRT-PCR method; type: functional, cell-based
Mus musculus [4] = test: Anti-osteoporotic activity in Balb/c mouse assessed as decrease in OVX-induced structure model index in femur at 25 to 100 mg/kg, ip administered for 4 weeks daily by microcomputed tomography; type: functional, organism-based
RAW264.7 [5] = test: Inhibition of NF-kappaB/p38 MAPK signaling pathway in mouse RAW264.7 cells assessed as reduction in RANKL-induced c-Fos mRNA level after 24 hrs by qRT-PCR method; type: cell-based
RAW264.7 [6] = test: Inhibition of RANKL-induced osteoclast differentiation in mouse RAW264.7 cells assessed as decrease in number of TRAP-positive multinucleated cells after 5 days by microscopy; type: functional, cell-based
RAW264.7 [7] = test: Inhibition of RANKL-induced osteoclast differentiation in mouse RAW264.7 cells assessed as TRAP activity after 5 days in presence of CAMKKbeta inhibitor STO609; type: functional, cell-based
Mus musculus [8] = test: Anti-osteoporotic activity in Balb/c mouse assessed as inhibition of OVX-mediated decrease in trabecular number in femur at 25 to 100 mg/kg, ip administered for 4 weeks daily by microcomputed tomography; type: functional, organism-based

SMILES: COc1cc(C2Oc3c(OC)cc(/C=C/CO)cc3C2CO)ccc1O (stereo not drawn)
- inhibition (RAW264.7 [1]): Active
- inhibition (RAW264.7 [2]): inactive
- inhibition (RAW264.7 [3]): Active
- Activity (Mus musculus [4]): Active
- inhibition (RAW264.7 [5]): Dose-dependent effect
- inhibition (RAW264.7 [6]): Dose-dependent effect
- inhibition (RAW264.7 [7]): Active
- inhibition (Mus musculus [8]): Active

Reference: ChEMBL document CHEMBL4145608, “Dehydrodiconiferyl Alcohol Inhibits Osteoclast Differentiation and Ovariectomy-Induced Bone Loss through Acting as an Estrogen Receptor Agonist” (J Nat Prod, 2018)
